pIC50: −log10 of the molar value. Read-outs that look alike come from different tables or passages of the source. Square brackets hold non-standard residues; d marks the D form. Peptide text beside a SMILES is read from it. * marks the point of attachment. ξ: configuration not given here. Abu(4,4,4-F3) = N[C@@H](CC(F)(F)F)C(=O)O; Phe(3-Me) = Cc1cccc(C[C@H](N)C(=O)O)c1; Dab(3S-OH) = NC[C@H](O)[C@H](N)C(=O)O; Lys(5ξ-OH) = NCC(O)CC[C@H](N)C(=O)O; ΔZArg = N=C(N)NCC/C=C(\N)C(=O)O; dOrn = NCCC[C@@H](N)C(=O)O; NH(CH2)4NH2 = NCCCCN*
Columns and labels:
[1] = system: Klebsiella pneumoniae ATCC BAA2470; assay: Murine peritonitis/sepsis model with Odilorhabdin A (Example 13); format: in vivo, CD-1 mice
[2] = system: Klebsiella pneumoniae ATCC BAA2470; assay: Murine peritonitis/sepsis model with analog 24.66 (Example 12); settings: 20 mg/kg i.v. single bolus, N=8
Method: Female CD-1 mice (weight, 25 g; Charles River) were used throughout the study. Six groups of 8 mice were inoculated by intraperitoneal (i.p.) injection of 0.5 ml Klebsiella pneumoniae ATCC BAA2470 suspension containing 10^8.1 CFU/ml in 0.9% sterile saline and 5% (wt/vol) mucin. One hour after bacterial challenge on day 0, mice were treated by intravenous (i.v.) route with the antibiotic solutions formulated in 0.9% sterile saline.
One group was administered with single bolus dose of tigecycline at 20 mg/kg. One group received no treatment.

[3] = system: Staphylococcus aureus ATCC 13709; assay: MIC, broth microdilution (CLSI), reference strain; settings: CAMHB
Ec #3 (EGB957) = assay: MIC / resistance profile, multidrug-resistant strain; settings: multidrug-resistant E. coli EGB957
[4] = target: N-type calcium channels (Cav2.2) (Rattus norvegicus (Rat), UniProt Q02294); assay: biochemical; format: binding
[5] = system: Acinetobacter baumannii ATCC 19606; assay: MIC, broth microdilution (CLSI), reference strain; settings: CAMHB
Ec #5 (DSM22315) = assay: MIC / resistance profile, multidrug-resistant strain; settings: multidrug-resistant E. coli DSM22315
Ec #1 (NCTC13476) = assay: as above; settings: multidrug-resistant E. coli NCTC13476
Ec #2 (MIN) = assay: as above; settings: multidrug-resistant E. coli MIN
Ec #4 (GUE) = assay: as above; settings: multidrug-resistant E. coli GUE
[6] = system: Pseudomonas aeruginosa ATCC 27853; assay: MIC, broth microdilution (CLSI), reference strain; settings: CAMHB
[7] = system: Escherichia coli ATCC 25922; assay: MIC, broth microdilution (CLSI), reference strain; settings: CAMHB
[8] = value in brackets, rat cerebral cortex, [125I]ω-conotoxin GVIA 0.001 nM, read-out: IC50 Cav2.2

## CN(C)c1cc(NC(=O)CNC(C)(C)C)c(O)c2c1C[C@H]1C[C@H]3[C@H](N(C)C)C(O)=C(C(N)=O)C(=O)[C@@]3(O)C(O)=C1C2=O [Tigecycline, tigecycline, reference compound]
[1]; 15 mg/kg i.v. single bolus, n=8 (tigecycline)
  Alive animals at 24 hrs: 8
[2]
  Alive animals at 24 hrs: 8

## Cc1cccc(C[C@H](NC(=O)[C@@H]2CCCN2C(=O)[C@@H](CCCN)NC(=O)CNC(=O)[C@H](C)NC(=O)[C@@H](NC(=O)[C@@H](N)CCCCN)[C@@H](O)CN)C(=O)N[C@@H](CCCCN)C(=O)N/C(=C\CCNC(=N)N)C(=O)O)c1 [24.153] (H-K[Dab(3S-OH)]AG[dOrn]P[Phe(3-Me)]K[ΔZArg]-OH)
[3]
  Sa: MIC Staphylococcus aureus ATCC 13709: ++ (≤8 μg/mL)
Ec #3 (EGB957)
  MIC Ec#3: ++ (≤8 μg/mL)
[4]; class symbol, rat cerebral cortex, [125I]ω-conotoxin GVIA 0.001 nM, 30 minutes at room temperature, read-out: IC50 Cav2.2
  pIC50: < 6.52
[5]
  Ab: MIC Acinetobacter baumannii ATCC 19606: − (>32 μg/mL)
Ec #5 (DSM22315)
  MIC Ec#5: ++ (≤8 μg/mL)
Ec #1 (NCTC13476)
  MIC Ec#1: ++ (≤8 μg/mL)
Ec #2 (MIN)
  MIC Ec#2: ++ (≤8 μg/mL)
Ec #4 (GUE)
  MIC Ec#4: + (≤32 μg/mL)
[6]
  Pa: MIC Pseudomonas aeruginosa ATCC 27853: − (>32 μg/mL)
[7]
  Ec: MIC Escherichia coli ATCC 25922: ++ (≤8 μg/mL)

## C[C@H](NC(=O)[C@@H](NC(=O)[C@@H](N)CCCCN)[C@@H](O)CN)C(=O)NCC(=O)N[C@H](CCCN)C(=O)N1CCC[C@H]1C(=O)N[C@@H](CC(F)(F)F)C(=O)N[C@@H](CCCCN)C(=O)N/C(=C\CCNC(=N)N)C(=O)O [24.109] (H-K[Dab(3S-OH)]AG[dOrn]P[Abu(4,4,4-F3)]K[ΔZArg]-OH)
[3]
  Sa: MIC Staphylococcus aureus ATCC 13709: ++ (≤8 μg/mL)
Ec #3 (EGB957)
  MIC Ec#3: + (≤32 μg/mL)
[4]
  pIC50: < 6.52
[4]; [8]
  pIC50: 6.00
[5]
  Ab: MIC Acinetobacter baumannii ATCC 19606: − (>32 μg/mL)
Ec #5 (DSM22315)
  MIC Ec#5: + (≤32 μg/mL)
Ec #1 (NCTC13476)
  MIC Ec#1: + (≤32 μg/mL)
Ec #2 (MIN)
  MIC Ec#2: + (≤32 μg/mL)
Ec #4 (GUE)
  MIC Ec#4: + (≤32 μg/mL)
[6]
  Pa: MIC Pseudomonas aeruginosa ATCC 27853: − (>32 μg/mL)
[7]
  Ec: MIC Escherichia coli ATCC 25922: ++ (≤8 μg/mL)

## N=C(N)NCC/C=C(\NC(=O)[C@H](CCC(O)CN)NC(=O)[C@H](Cc1c[nH]cn1)NC(=O)[C@@H]1CCCN1C(=O)[C@@H](CCCN)NC(=O)CNC(=O)[C@@H](NC(=O)[C@@H](NC(=O)[C@@H](N)CCCCN)[C@@H](O)CN)[C@@H](O)CN)C(=O)N[C@@H](CCC(O)CN)C(=O)NCCCCN (stereo partly drawn) [Odilorhabdin A] (H-K[Dab(3S-OH)][Dab(3S-OH)]G[dOrn]PH[Lys(5ξ-OH)][ΔZArg][Lys(5ξ-OH)]-{NH(CH2)4NH2}; N-terminus and C-terminus assumed)
[4]; [8]
  pIC50: 7.60
[1]; 5 mg/kg i.v. single bolus, n=6
  Alive animals at 24 hrs: 0
[1]; 10 mg/kg i.v. single bolus, n=8
  Alive animals at 24 hrs: 2
[1]; 15 mg/kg i.v. single bolus, n=7
  Alive animals at 24 hrs: 4
[1]; 20 mg/kg i.v. single bolus, n=8
  Alive animals at 24 hrs: 6
[1]; single i.v. bolus one hour after i.p. challenge, 10^7.7 CFU/ml, observed 24 hours
  ED50: 13.9 mg/kg

Reference: patent publication US10626144B2, “Peptide derivatives and uses thereof” (Nosopharm, priority 2014, dated 2020)
